Laboratory results: patent publication US11046699B2, “Pyrazolo-pyrimidin-amino-cycloalkyl compounds and their therapeutic uses” (RAPT THERAPEUTICS, INC., priority 2018, dated 2021)
Where two headings read alike, the source gives them in different places.

Molecular target: GCN2 (Homo sapiens, UniProt Q9P2K8)
Assay: GCN2 enzymatic endpoint assay: phosphorylation of GFP-eIF2α measured by TR-FRET (Lanthascreen)
Type: biochemical
Protocol: The Enzymatic assay was run as an endpoint assay to quantify the activity of the serine/threonine GCN2 kinase by way of measuring phosphorylation of its natural substrate, eiF2α.
The enzymatic reaction was initiated by incubating with 2 μM ATP and 80 nM of GFP labeled eiF2a substrate at room temperature and then stopped after 90 minutes with EDTA. The amount of phosphorylated eIF2α is determined by TR-FRET (Lanthascreen). A terbium labeled antibody associates with the phosphorylated substrate resulting in an increased TR-FRET value. Activity was calculated as the ratio of the acceptor (fluorescein) signal at 520 nm wavelength to the donor (terbium) signal 495 nm. The amount of antibody that is bound to the tracer is directly proportional to the amount of phosphorylated substrate present, and in this manner, kinase activity can be detected and measured by an increase in the TR-FRET value.
Compound addition by D300
5 μL enzyme solution in assay buffer
5 μL substrate/ATP mixture in assay buffer
5 μL stop/detection mix in antibody dilution buffer

[1] = tested as described in Example 77, compound and/or hydrochloride, dihydrochloride or trifluoroacetic acid salt, read-out: IC 50 Activity

Chain of GCN2 (Q9P2K8 whole entry): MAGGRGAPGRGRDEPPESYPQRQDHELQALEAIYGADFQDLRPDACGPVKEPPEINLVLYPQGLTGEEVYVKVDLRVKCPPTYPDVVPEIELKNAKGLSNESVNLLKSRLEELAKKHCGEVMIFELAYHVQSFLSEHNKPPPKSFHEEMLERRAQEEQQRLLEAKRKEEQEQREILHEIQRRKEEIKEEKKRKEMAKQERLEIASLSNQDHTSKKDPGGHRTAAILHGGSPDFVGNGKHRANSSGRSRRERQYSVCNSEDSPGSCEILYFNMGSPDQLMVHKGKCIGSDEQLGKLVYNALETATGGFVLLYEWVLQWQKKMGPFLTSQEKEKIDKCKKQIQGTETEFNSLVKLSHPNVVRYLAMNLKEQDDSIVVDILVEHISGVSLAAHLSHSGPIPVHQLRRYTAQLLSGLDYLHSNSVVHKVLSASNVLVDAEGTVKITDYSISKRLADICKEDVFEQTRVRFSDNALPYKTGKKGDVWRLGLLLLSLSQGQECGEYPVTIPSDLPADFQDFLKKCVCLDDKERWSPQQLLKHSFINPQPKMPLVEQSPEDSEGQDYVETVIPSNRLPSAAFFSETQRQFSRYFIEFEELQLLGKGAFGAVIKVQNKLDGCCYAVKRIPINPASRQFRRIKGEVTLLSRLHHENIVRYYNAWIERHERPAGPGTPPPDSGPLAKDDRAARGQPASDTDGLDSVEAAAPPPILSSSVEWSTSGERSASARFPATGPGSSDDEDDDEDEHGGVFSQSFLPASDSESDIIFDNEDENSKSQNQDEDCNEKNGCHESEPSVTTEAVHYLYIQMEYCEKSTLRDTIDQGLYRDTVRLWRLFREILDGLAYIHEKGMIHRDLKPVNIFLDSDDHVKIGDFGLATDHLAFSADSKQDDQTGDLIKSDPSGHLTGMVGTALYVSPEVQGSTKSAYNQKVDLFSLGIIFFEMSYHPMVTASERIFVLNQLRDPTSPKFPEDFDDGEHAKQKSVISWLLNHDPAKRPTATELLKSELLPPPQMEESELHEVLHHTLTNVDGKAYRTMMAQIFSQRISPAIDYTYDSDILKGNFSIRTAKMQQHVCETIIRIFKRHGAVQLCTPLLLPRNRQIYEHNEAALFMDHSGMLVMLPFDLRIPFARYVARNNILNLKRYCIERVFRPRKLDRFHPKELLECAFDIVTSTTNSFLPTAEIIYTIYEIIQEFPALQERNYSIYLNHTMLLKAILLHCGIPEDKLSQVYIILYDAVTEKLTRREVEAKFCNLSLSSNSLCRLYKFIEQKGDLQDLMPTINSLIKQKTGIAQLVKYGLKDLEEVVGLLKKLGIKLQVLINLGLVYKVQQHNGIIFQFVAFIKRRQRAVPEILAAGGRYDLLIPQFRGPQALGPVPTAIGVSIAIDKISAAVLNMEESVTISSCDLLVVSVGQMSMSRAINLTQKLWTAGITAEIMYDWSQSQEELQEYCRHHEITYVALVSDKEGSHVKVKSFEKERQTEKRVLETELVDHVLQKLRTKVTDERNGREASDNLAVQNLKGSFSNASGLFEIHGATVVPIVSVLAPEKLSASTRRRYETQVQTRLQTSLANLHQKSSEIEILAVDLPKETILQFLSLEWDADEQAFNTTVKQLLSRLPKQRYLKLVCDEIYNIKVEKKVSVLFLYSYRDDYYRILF

| Compound | IC50 [1] | IC50 (GCN2 biochemical IC50, 4 nM GCN2, 2 μM ATP, 80 nM GFP-eIF2α, 90 min RT, read-out: GCN2 activity) |
| --- | --- | --- |
| CNC(=O)CC1CC(Nc2ncc3c(Br)nn(-c4ccc(-c5nnc(C)s5)c(CCC#N)c4)c3n2)C1 (stereo not shown) | 25 to 200 nM |  |
| CNC(=O)CC1CC(Nc2ncc3c(Br)nn(-c4ccc(-c5nnc(C)s5)cc4)c3n2)C1 (stereo not shown) | 25 to 200 nM |  |
| Cc1nnc(-c2ccc(-n3nc(Br)c4cnc(N[C@@H]5CCC(C)(CP(C)(C)=O)C5)nc43)cc2CCC#N)s1 (stereo partly shown) | 25 to 200 nM |  |
| Cc1nnc(-c2ccc(-n3nc(Br)c4cnc(N[C@@H]5CC[C@@](C)(C(=O)N6CCOCC6)C5)nc43)cc2CCC#N)s1 | 25 to 200 nM |  |
| Cc1nnc(-c2ccc(-n3nc(Br)c4cnc(N[C@@H]5CC[C@@](C)(C(=O)N6CCNCC6)C5)nc43)cc2CCC#N)s1 | 25 to 200 nM |  |
| Cc1nnc(-c2ccc(-n3nc(Br)c4cnc(N[C@@H]5CC[C@@]6(CCNC6=O)C5)nc43)cc2CCC#N)s1 | 25 to 200 nM |  |
| Cc1nnc(-c2ccc(-n3nc(Br)c4cnc(N[C@@H]5CC[C@]6(CCNC6=O)C5)nc43)cc2CCC#N)s1 | 25 to 200 nM |  |
| Cc1nnc(-c2ccc(-n3nc(Br)c4cnc(N[C@@H]5CC[C@@](C)(N)C5)nc43)cc2CCC#N)s1 | 25 to 200 nM |  |
| Cc1nnc(-c2ccc(-n3nc(Br)c4cnc(NC5CCC(CN(C)C)(C(=O)O)C5)nc43)cc2)s1 (stereo not shown) | 25 to 200 nM |  |
| CNC(=O)CCC1(C#N)CC[C@@H](Nc2ncc3c(Br)nn(-c4ccc(-c5nnc(C)s5)cc4)c3n2)C1 (stereo partly shown) | < 25 nM |  |
| CNC(=O)[C@]1(C)CC[C@@H](Nc2ncc3c(Br)nn(-c4ccc5nc(N6CCN(C(C)=O)CC6)ncc5c4)c3n2)C1 | 25 to 200 nM |  |
| CNC(=O)[C@]1(C)CC[C@@H](Nc2ncc3c(Br)nn(-c4ccc5ncn(CCN)c(=O)c5c4)c3n2)C1 | 25 to 200 nM |  |
| CNC(=O)[C@]1(C)CC[C@@H](Nc2ncc3c(Br)nn(-c4ccc5ncn(CCCN)c(=O)c5c4)c3n2)C1 | 25 to 200 nM |  |
| CC[C@@H](N)c1cc(Cl)cc(-n2nc(Br)c3cnc(N[C@@H]4CC[C@@](C)(C(=O)NC)C4)nc32)c1 | < 25 nM |  |
| C[C@H](N)c1cc(Cl)cc(-n2nc(Br)c3cnc(N[C@@H]4CC[C@@](C)(C#N)C4)nc32)c1 | 25 to 200 nM |  |
| CNC(=O)[C@]1(C)CC[C@@H](Nc2ncc3c(Br)nn(-c4cc(F)cc([C@H](C)N)c4)c3n2)C1 | 25 to 200 nM |  |
| CC[C@H](N)c1cc(Cl)cc(-n2nc(Br)c3cnc(N[C@@H]4CC[C@@](C)(C(=O)NC)C4)nc32)c1 | 25 to 200 nM |  |
| CNC(=O)[C@]1(C)CC[C@@H](Nc2ncc3c(Br)nn(-c4cc(Br)cc(CN)c4)c3n2)C1 | 25 to 200 nM |  |
| CNC(=O)[C@]1(C)CC[C@@H](Nc2ncc3c(Br)nn(-c4ccc5c(c4)C(N)CO5)c3n2)C1 (stereo partly shown) | 25 to 200 nM |  |
| C[C@@]1(O)CC[C@@H](Nc2ncc3c(Br)nn(-c4cc(CCN)c5ncccc5c4)c3n2)C1 | < 25 nM |  |
| CNC(=O)[C@]1(C)CC[C@@H](Nc2ncc3c(Br)nn(-c4ccc5c(c4)c(=O)n(C)c(=O)n5C)c3n2)C1 | < 25 nM |  |

| Compound | IC50 [1] | IC50 (GCN2 biochemical IC50, 4 nM GCN2, 2 μM ATP, 80 nM GFP-eIF2α, 90 min RT, read-out: GCN2 activity) |
| --- | --- | --- |
| CNC(=O)[C@]1(C)CC[C@@H](Nc2ncc3c(Br)nn(-c4ccc5nc(NC)ncc5c4)c3n2)C1 | 25 to 200 nM |  |
| CNC(=O)[C@]1(C)CC[C@@H](Nc2ncc3c(Br)nn(-c4ccc5nc(N6CCNCC6)ncc5c4)c3n2)C1 | < 25 nM |  |
| CNC(=O)[C@]1(C)CC[C@@H](Nc2ncc3c(Br)nn(-c4ccc5nc(N6CCCC6)ncc5c4)c3n2)C1 | 25 to 200 nM |  |
| CNC(=O)[C@]1(C)CC[C@@H](Nc2ncc3c(Br)nn(-c4ccc5ncn(CCN6C(=O)c7ccccc7C6=O)c(=O)c5c4)c3n2)C1 | 25 to 200 nM |  |
| CNC(=O)[C@]1(C#N)CC[C@@H](Nc2ncc3c(Br)nn(-c4ccc(-c5nnc(C)s5)c(CCC#N)c4)c3n2)C1 | 25 to 200 nM |  |
| CNC(=O)[C@]1(C)CC[C@@H](Nc2ncc3c(Br)nn(-c4ccc5ncn(CCO)c(=O)c5c4)c3n2)C1 | 25 to 200 nM |  |
| CNC(=O)[C@]1(C)CC[C@@H](Nc2ncc3c(Br)nn(-c4cc(Br)cc(C(C)O)c4)c3n2)C1 (stereo partly shown) | 25 to 200 nM |  |
| CNC(=O)[C@]1(C)CC[C@@H](Nc2ncc3c(Br)nn(-c4cc(Cl)cc(C(C)O)c4)c3n2)C1 (stereo partly shown) | < 25 nM |  |
| CNC(=O)[C@]1(C)CC[C@@H](Nc2ncc3c(Br)nn(-c4cc(Cl)cc([C@H](C)N(C)C)c4)c3n2)C1 | 25 to 200 nM |  |
| CNC(=O)[C@]1(C)CC[C@@H](Nc2ncc3c(Br)nn(-c4ccc5c(=O)n(C)cnc5c4)c3n2)C1 | 25 to 200 nM |  |
| CNC(=O)[C@]1(C)CC[C@@H](Nc2ncc3c(Br)nn(-c4ccc(-c5nncs5)cc4)c3n2)C1 | 25 to 200 nM |  |
| CNC(=O)[C@]1(C)CC[C@@H](Nc2ncc3c(Br)nn(-c4ccc(-c5nnc(CCOC)s5)cc4)c3n2)C1 | 25 to 200 nM |  |
| CNC(=O)[C@]1(C#N)CC[C@@H](Nc2ncc3c(Br)nn(-c4ccc(-c5nnc(C)s5)cc4)c3n2)C1 | 25 to 200 nM |  |
| CNC(=O)[C@]1(CC(F)(F)F)CC[C@@H](Nc2ncc3c(Br)nn(-c4ccc(-c5nnc(C)s5)cc4)c3n2)C1 | 25 to 200 nM |  |
| Cc1nnc(-c2ccc(-n3nc(Br)c4cnc(N[C@@H]5CC[C@@](C)(C#N)C5)nc43)cc2)s1 | 25 to 200 nM |  |
| CNC(=O)[C@]1(C)CC[C@@H](Nc2ncc3c(Br)nn(-c4ccc5nc[nH]c(=O)c5c4)c3n2)C1 | 25 to 200 nM |  |
| CN[C@]1(C)CC[C@@H](Nc2ncc3c(Br)nn(-c4ccc(-c5nnc(C)s5)cc4)c3n2)C1 | 25 to 200 nM |  |
| Cc1nnc(-c2ccc(-n3nc(Br)c4cnc(N[C@@H]5CC[C@@](C)(N)C5)nc43)cc2)s1 | 25 to 200 nM |  |
| Cc1nnc(-c2ccc(-n3nc(Br)c4cnc(N[C@@H]5CC[C@@](C)(N(C)C)C5)nc43)cc2)s1 | 25 to 200 nM |  |
| CNC(=O)[C@@]1(CC(F)(F)F)CC[C@@H](Nc2ncc3c(Br)nn(-c4ccc(-c5nnc(C)s5)cc4)c3n2)C1 | 25 to 200 nM |  |
| CNS(=O)(=O)C1CC[C@@H](Nc2ncc3c(Br)nn(-c4cc(Cl)cc([C@H](C)N)c4)c3n2)C1 (stereo partly shown) | 25 to 200 nM |  |

| Compound | IC50 [1] | IC50 (GCN2 biochemical IC50, 4 nM GCN2, 2 μM ATP, 80 nM GFP-eIF2α, 90 min RT, read-out: GCN2 activity) |
| --- | --- | --- |
| CC1(O)CC[C@@H](Nc2ncc3c(Br)nn(-c4cc(CCN)c5ncccc5c4)c3n2)C1 (stereo partly shown) | 25 to 200 nM |  |
| CNc1ncc2cc(-n3nc(Br)c4cnc(N[C@@H]5CCC(C)(O)C5)nc43)ccc2n1 (stereo partly shown) | 25 to 200 nM |  |
| CNC(=O)C1(CC(F)(F)F)CC[C@@H](Nc2ncc3c(Br)nn(-c4ccc(-c5nnc(C)s5)c(CCC#N)c4)c3n2)C1 (stereo partly shown) | 25 to 200 nM |  |
| Cc1nnc(-c2ccc(-n3nc(Br)c4cnc(N[C@@H]5CCC(CN6CCOCC6)(C(=O)O)C5)nc43)cc2)s1 (stereo partly shown) | 25 to 200 nM |  |
| C[C@H](N)c1cc(Cl)cc(-n2nc(Br)c3cnc(N[C@@H]4CCC5(CC(=O)N(C)C5=O)C4)nc32)c1 (stereo partly shown) | 25 to 200 nM |  |
| Cc1nnc(-c2ccc(-n3nc(Br)c4cnc(N[C@@H]5CCC6(CC(=O)N(C)C6=O)C5)nc43)cc2)s1 (stereo partly shown) | < 25 nM |  |
| C[C@H](N)c1cc(Cl)cc(-n2nc(Br)c3cnc(N[C@@H]4CC[C@@](C)(C(=O)N5CCP(C)(=O)CC5)C4)nc32)c1 | 25 to 200 nM |  |
| C[C@@]1(CO)CC[C@@H](Nc2ncc3c(Br)nn(-c4cc(CCN)c5ncccc5c4)c3n2)C1 | 25 to 200 nM |  |
| Cc1nnc(-c2ccc(-n3nc(Br)c4cnc(N[C@@H]5CC[C@@](C)(C(=O)N6CCP(C)(=O)CC6)C5)nc43)cc2)s1 | 25 to 200 nM |  |
| COC(=O)N1CC[C@@H](Nc2ncc3c(Br)nn(-c4ccc(-c5nnc(C)s5)cc4)c3n2)C1 | 25 to 200 nM |  |
| CC1N(C)C(=O)CN1C(=O)[C@@H]1CC[C@@H](Nc2ncc3c(Br)nn(-c4cc(F)c5ncccc5c4)c3n2)C1 (mixture of isomers) | < 25 nM |  |
| CNC(=O)C1CCN(C(=O)[C@@H]2CC[C@@H](Nc3ncc4c(Br)nn(-c5cc(F)c6ncccc6c5)c4n3)C2)C1 (mixture of isomers) | 25 to 200 nM |  |
| O=C(O)C1CN(C(=O)[C@@H]2CC[C@@H](Nc3ncc4c(Br)nn(-c5ccc6ncccc6c5)c4n3)C2)CCN1 (mixture of isomers) | < 25 nM |  |
| COC(=O)C1CN(C(=O)[C@@H]2CC[C@@H](Nc3ncc4c(Br)nn(-c5ccc6ncccc6c5)c4n3)C2)CCN1 (mixture of isomers) | 25 to 200 nM |  |
| N#Cc1cc(-n2nc(Br)c3cnc(N[C@@H]4CC[C@@H](C(=O)NC5CCN(CC(F)(F)F)C5)C4)nc32)cc2cccnc12 (mixture of isomers) | 25 to 200 nM |  |
| O=C(NC1CCCN(CCF)C1)[C@@H]1CC[C@@H](Nc2ncc3c(Br)nn(-c4cc(F)c5ncccc5c4)c3n2)C1 (mixture of isomers) | 25 to 200 nM |  |
| CNC(=O)C1(C)CC[C@@H](Nc2ncc3c(Br)nn(-c4cc(CO)cc(OC)c4)c3n2)C1 (mixture of isomers) | 25 to 200 nM |  |
| CNC(=O)C1(C)CC[C@@H](Nc2ncc3c(Br)nn(-c4ccc5cnccc5c4)c3n2)C1 (mixture of isomers) | 200 to 500 nM |  |
| CNC(=O)C1(C)CC[C@@H](Nc2ncc3c(Br)nn(-c4cc(Cl)cc(CO)c4)c3n2)C1 (mixture of isomers) [Example 17, (3R)-3-((3-bromo-1-(3-chloro-5-(hydroxymethyl)phenyl)-1H-pyrazolo[3,4-d]pyrimidin-6-yl)amino)-N,1-dimethylcyclopentane-1-carboxamide] |  | 25 to 200 nM |
